Reference: US10662198B2, “Polymorphic form of compound, preparation method and use thereof” (QILU PHARMACEUTICAL CO., LTD., priority 2017, dated 2020)

Legend:
Assay type in all cases: physicochemical
[1] = Stability test at high temperature
Protocol: The crystalline form II prepared in example 2 was subjected to a stability test at 60° C., and the results were shown in Table 7 below.

[2] = Stability test at room temperature; conditions: for Purity after 180 days / Crystalline form after 180 days: sealed medicinal low density polyethylene bags; for Purity after 180 days: HPLC; for Crystalline form after 180 days: XRPD
Source text: The crystalline form II prepared in example 2, crystalline form IV prepared in example 4, crystalline form VI prepared in example 8, and crystalline form VII prepared in example 10 were respectively placed in medicinal low density polyethylene bags, sealed, and maintained at room temperature for 180 days, detected by PANalytical X-ray powder diffractometer for its XRPD, and by high performance liquid chromatography for its purity.

[3] = Stability test under high humidity
Source text: The crystalline form IV prepared in example 4 was subjected to a stability test at 92.5% RH, and the results were shown in Table 8 below.

## COC(=O)C1=C2C[C@H](NS(N)(=O)=O)CN2C(c2nccs2)=N[C@H]1c1ccc(F)c(F)c1F [Crystalline form II, methyl (3R,6S)-6-aminosulfonylamino-1-(thiazol-2-yl)-3-(2,3,4-trifluorophenyl)-3,5,6,7-tetrahydropyrrolo[1,2-c]pyrimidin-4-formate]
[1]; 60° C. test, initial
  HPLC purity (%) Initial: 96.8%
[1]; 60° C., after 10 days
  Crystalline form After 10 days: crystalline form unchanged
  HPLC purity (%) After 10 days: 96.6%
[1]; high temperature condition, 10 days
  change in purity and crystalline form (in words): no change in purity and crystalline form
[2]
  purity and crystalline form after 180 days (in words): remained unchanged
  Purity after 180 days: 99.5%
  Crystalline form after 180 days: unchanged

## COC(=O)C1=C2C[C@H](NS(N)(=O)=O)CN2C(c2nccs2)=N[C@H]1c1ccc(F)c(F)c1F [Crystalline form IV, methyl (3R,6S)-6-aminosulfonylamino-1-(thiazol-2-yl)-3-(2,3,4-trifluorophenyl)-3,5,6,7-tetrahydropyrrolo[1,2-c]pyrimidin-4-formate]
[3]; 92.5% RH test, initial
  HPLC purity (%) Initial: 99.2%
[3]; 92.5% RH, after 10 days
  HPLC purity (%) After 10 days: 99.1%
[3]; high humidity condition, 10 days
  change in purity and crystal form (in words): no change in purity and crystal form
[3]; relative humidity of up to 92.5% RH
  purity, color, and properties on preservation at high humidity (in words): purity, color, and properties unchanged
[2]
  purity and crystalline form after 180 days (in words): remained unchanged
  Purity after 180 days: 99.3%
  Crystalline form after 180 days: unchanged

## COC(=O)C1=C2C[C@H](NS(N)(=O)=O)CN2C(c2nccs2)=N[C@H]1c1ccc(F)c(F)c1F [Crystalline form VI, methyl (3R,6S)-6-aminosulfonylamino-1-(thiazol-2-yl)-3-(2,3,4-trifluorophenyl)-3,5,6,7-tetrahydropyrrolo[1,2-c]pyrimidin-4-formate]
[2]
  purity and crystalline form after 180 days (in words): remained unchanged
  Purity after 180 days: 99.7%
  Crystalline form after 180 days: unchanged

## COC(=O)C1=C2C[C@H](NS(N)(=O)=O)CN2C(c2nccs2)=N[C@H]1c1ccc(F)c(F)c1F [Crystalline form VII, methyl (3R,6S)-6-aminosulfonylamino-1-(thiazol-2-yl)-3-(2,3,4-trifluorophenyl)-3,5,6,7-tetrahydropyrrolo[1,2-c]pyrimidin-4-formate]
[2]
  purity and crystalline form after 180 days (in words): remained unchanged
  Purity after 180 days: 99.5%
  Crystalline form after 180 days: unchanged
